According to ChEMBL document CHEMBL3232736, “Antiproliferative activities of halogenated thieno[3,2-d]pyrimidines” (Bioorg Med Chem, 2014):
Values after ≈ are worked out from the molar mass of the structure shown. Active and inactive are the calls of the source. The calls are words filed in the database; no cut-off is given here.

Legend:
[1] = test system: CCRF-CEM; test: Cytotoxicity against human CCRF-CEM cells assessed as reduction in cell number after 72 hrs by cell counting assay; type: functional, cell-based
[2] = test system: HeLa; test: Cytotoxicity against human HeLa cells assessed as reduction in cell number after 72 hrs by cell counting assay; type: functional, cell-based
[3] = test system: L1210; test: Cytotoxicity against mouse L1210 cells assessed as reduction in cell number after 48 hrs by cell counting assay; type: functional, cell-based; conditions: L1210, 48 h
[4] = test system: Cryptococcus neoformans; test: Antifungal activity against Cryptococcus neoformans JEC20 assessed as growth inhibition at 100 uM after 48 hrs by microbroth dilution method; type: functional
[5] = test system: Cryptococcus neoformans; test: Antifungal activity against Cryptococcus neoformans VANC-R265 assessed as growth inhibition at 100 uM after 48 hrs by microbroth dilution method; type: functional
[6] = test system: Cryptococcus neoformans; test: Antifungal activity against Cryptococcus neoformans B4546 assessed as growth inhibition at 100 uM after 48 hrs by microbroth dilution method; type: functional
[7] = test system: Candida albicans; test: Antifungal activity against Candida albicans ATCC 10231 assessed as growth inhibition at 100 uM after 16 to 20 hrs by microbroth dilution method; type: functional
[8] = test system: Bacillus spizizenii; test: Antibacterial activity against Bacillus subtilis ATCC 6633 assessed as growth inhibition at 100 uM after 16 to 20 hrs by microbroth dilution method; type: functional
[9] = test system: Staphylococcus aureus; test: Antibacterial activity against methicillin-resistant Staphylococcus aureus subsp. aureus ATCC 43300 assessed as growth inhibition at 100 uM after 16 to 20 hrs by microbroth dilution method; type: functional, organism-based
[10] = test system: Cryptococcus neoformans; test: Antifungal activity against Cryptococcus neoformans ATCC 66031 assessed as growth inhibition at 100 uM after 48 hrs by microbroth dilution method; type: functional
[11] = test system: Escherichia coli; test: Antibacterial activity against Escherichia coli ATCC 25922 assessed as growth inhibition at 100 uM after 16 to 20 hrs by microbroth dilution method; type: functional, organism-based
[12] = target: Leukocyte tyrosine kinase receptor (Homo sapiens) (UniProt P29376); test: Inhibition of LTK (unknown origin) at 5 uM
[13] = test system: L1210; test: Induction of apoptosis in mouse L1210 cells assessed as viable cells level at 1 uM after 48 hrs by Annexin-V/7-AAD staining-based flow cytometric analysis (reference value: 92.5%); type: functional
[14] = target: Tyrosine-protein kinase JAK3 (Homo sapiens) (UniProt P52333); test: Inhibition of JAK3 (unknown origin) at 5 uM
Tyrosine-protein kinase JAK3 (Homo sapiens), sequence (P52333 whole entry): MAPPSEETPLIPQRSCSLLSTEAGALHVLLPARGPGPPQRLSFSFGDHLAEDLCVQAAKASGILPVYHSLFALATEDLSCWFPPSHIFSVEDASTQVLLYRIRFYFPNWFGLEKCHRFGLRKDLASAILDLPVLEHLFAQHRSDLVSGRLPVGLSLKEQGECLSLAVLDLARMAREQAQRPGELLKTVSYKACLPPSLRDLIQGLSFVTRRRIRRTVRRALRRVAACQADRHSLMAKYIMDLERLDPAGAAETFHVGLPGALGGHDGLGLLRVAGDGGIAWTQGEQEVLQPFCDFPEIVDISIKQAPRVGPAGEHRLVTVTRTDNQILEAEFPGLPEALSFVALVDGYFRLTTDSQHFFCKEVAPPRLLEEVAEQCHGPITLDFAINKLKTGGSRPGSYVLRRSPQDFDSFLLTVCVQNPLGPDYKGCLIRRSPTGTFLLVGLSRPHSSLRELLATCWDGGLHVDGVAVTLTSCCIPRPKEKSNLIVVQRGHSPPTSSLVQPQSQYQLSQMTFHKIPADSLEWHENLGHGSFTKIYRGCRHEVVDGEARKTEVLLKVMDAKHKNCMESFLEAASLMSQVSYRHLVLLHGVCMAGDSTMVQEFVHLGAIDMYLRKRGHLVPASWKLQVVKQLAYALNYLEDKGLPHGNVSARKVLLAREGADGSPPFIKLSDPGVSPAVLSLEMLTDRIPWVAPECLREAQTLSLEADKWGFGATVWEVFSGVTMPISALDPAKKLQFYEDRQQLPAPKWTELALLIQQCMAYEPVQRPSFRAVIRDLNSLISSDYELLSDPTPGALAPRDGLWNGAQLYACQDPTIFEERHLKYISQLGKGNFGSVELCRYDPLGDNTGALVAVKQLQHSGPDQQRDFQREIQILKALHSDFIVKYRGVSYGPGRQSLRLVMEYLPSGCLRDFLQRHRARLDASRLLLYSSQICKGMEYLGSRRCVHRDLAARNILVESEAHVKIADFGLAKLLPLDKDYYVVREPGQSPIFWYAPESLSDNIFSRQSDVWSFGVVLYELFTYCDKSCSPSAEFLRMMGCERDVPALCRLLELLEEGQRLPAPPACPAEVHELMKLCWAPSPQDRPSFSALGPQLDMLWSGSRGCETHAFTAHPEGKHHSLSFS

[15] = target: Proto-oncogene tyrosine-protein kinase Src (Homo sapiens) (UniProt P12931); test: Inhibition of SRC N1 (unknown origin) at 5 uM
Proto-oncogene tyrosine-protein kinase Src (Homo sapiens), sequence (P12931 2-536 limits assumed): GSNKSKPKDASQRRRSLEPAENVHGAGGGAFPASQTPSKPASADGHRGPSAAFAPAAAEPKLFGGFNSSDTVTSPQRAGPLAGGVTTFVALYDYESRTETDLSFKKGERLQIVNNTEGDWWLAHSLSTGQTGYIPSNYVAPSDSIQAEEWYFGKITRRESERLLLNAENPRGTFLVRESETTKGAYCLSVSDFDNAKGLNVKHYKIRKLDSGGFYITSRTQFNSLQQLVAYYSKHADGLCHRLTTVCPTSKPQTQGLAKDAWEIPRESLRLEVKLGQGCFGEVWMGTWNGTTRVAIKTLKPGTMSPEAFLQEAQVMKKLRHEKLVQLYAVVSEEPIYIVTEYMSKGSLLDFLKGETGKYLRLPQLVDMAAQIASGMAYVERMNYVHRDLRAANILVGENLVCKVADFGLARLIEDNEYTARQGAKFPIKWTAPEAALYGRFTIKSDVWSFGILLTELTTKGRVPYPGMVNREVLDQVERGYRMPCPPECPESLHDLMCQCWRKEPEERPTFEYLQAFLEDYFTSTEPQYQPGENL

[16] = target: Phosphatidylinositol 3-kinase catalytic subunit type 3 (Homo sapiens) (UniProt Q8NEB9); test: Inhibition of PIK3C3 (unknown origin) at 5 uM
[17] = target: Serine/threonine-protein kinase D3 (Homo sapiens) (UniProt O94806); test: Inhibition of PRKCN (unknown origin) at 5 uM
Serine/threonine-protein kinase D3 (Homo sapiens), sequence (O94806 whole entry): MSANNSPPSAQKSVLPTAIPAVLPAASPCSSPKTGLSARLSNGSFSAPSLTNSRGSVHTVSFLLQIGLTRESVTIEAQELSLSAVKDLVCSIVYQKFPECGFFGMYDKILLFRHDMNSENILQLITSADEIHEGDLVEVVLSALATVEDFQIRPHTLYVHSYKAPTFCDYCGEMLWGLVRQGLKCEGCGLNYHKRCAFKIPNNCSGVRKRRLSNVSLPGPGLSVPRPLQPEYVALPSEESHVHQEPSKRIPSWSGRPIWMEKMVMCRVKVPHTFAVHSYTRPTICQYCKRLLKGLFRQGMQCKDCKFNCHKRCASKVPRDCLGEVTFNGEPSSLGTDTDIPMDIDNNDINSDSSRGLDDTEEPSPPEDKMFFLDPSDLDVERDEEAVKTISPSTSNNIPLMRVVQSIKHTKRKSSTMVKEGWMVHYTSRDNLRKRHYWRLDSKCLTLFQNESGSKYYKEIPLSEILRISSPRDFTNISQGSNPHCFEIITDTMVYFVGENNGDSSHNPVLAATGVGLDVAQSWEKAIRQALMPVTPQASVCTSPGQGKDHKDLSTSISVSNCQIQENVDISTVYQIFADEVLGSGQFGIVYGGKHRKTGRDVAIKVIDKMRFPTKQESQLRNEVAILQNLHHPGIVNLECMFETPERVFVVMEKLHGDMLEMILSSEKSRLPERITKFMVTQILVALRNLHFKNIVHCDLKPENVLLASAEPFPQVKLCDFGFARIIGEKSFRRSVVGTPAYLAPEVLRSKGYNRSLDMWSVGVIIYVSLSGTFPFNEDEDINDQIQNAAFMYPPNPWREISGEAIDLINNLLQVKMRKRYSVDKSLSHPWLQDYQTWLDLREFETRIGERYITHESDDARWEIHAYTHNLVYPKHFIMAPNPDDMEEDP

[18] = target: Tyrosine-protein kinase JAK2 (Homo sapiens) (UniProt O60674); test: Inhibition of JAK2 (unknown origin) at 5 uM
Tyrosine-protein kinase JAK2 (Homo sapiens), sequence (O60674 whole entry, the tested form may be a part): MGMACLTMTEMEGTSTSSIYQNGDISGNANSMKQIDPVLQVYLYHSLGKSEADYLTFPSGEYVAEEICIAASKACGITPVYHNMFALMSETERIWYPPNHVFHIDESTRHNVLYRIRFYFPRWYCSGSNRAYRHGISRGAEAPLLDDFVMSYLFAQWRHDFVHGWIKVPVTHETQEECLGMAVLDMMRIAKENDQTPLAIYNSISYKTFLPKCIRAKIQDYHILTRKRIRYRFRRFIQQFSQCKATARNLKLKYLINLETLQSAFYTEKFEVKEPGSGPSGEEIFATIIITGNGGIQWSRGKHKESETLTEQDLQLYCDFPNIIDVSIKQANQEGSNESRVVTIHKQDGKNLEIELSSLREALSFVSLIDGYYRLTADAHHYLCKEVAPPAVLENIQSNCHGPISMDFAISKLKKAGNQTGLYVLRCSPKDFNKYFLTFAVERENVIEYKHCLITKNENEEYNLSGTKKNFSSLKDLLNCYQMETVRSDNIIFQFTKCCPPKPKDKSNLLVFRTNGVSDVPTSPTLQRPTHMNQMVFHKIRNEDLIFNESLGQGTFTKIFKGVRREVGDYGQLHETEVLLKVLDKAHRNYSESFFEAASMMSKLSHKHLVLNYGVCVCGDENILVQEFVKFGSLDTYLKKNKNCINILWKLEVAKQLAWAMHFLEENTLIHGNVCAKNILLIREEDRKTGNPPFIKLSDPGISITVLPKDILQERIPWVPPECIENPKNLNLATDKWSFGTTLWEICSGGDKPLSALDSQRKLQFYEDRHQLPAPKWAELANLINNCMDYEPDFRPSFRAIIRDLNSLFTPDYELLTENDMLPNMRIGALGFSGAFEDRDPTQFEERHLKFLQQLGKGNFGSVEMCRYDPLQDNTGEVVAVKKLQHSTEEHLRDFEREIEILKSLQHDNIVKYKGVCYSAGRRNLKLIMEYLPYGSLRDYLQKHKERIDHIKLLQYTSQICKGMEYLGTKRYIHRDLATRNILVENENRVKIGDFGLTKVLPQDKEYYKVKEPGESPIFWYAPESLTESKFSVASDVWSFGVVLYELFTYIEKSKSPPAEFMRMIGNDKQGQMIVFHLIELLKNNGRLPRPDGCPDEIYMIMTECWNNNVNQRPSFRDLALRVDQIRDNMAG

[19] = target: Phosphatidylinositol 4-phosphate 3-kinase C2 domain-containing subunit alpha (Homo sapiens) (UniProt O00443); test: Inhibition of PIK3C2A (unknown origin) at 5 uM
[20] = test system: HEL; test: Cytotoxicity against human HEL cells assessed as reduction in cell number by cell counting assay; type: functional
[21] = test system: Vero; test: Cytotoxicity against African green monkey Vero cells assessed as reduction in cell number; type: cell-based; conditions: chlorocebus sabaeus
[22] = target: Serine/threonine-protein kinase D1 (Homo sapiens) (UniProt Q15139); test: Inhibition of PRKD1 (unknown origin) at 5 uM
[23] = target: Non-receptor tyrosine-protein kinase TYK2 (Homo sapiens) (UniProt P29597); test: Inhibition of TYK2 (unknown origin) at 5 uM
[24] = target: Phosphatidylinositol 4,5-bisphosphate 3-kinase catalytic subunit gamma isoform (Homo sapiens) (UniProt P48736); test: Inhibition of PIK3CG (unknown origin) at 5 uM
[25] = test system: Pseudomonas aeruginosa; test: Antibacterial activity against Pseudomonas aeruginosa ATCC 27853 assessed as growth inhibition at 100 uM after 16 to 20 hrs by microbroth dilution method; type: functional, organism-based
[26] = target: PI3-kinase p110-alpha/p85-alpha (Homo sapiens) (UniProt P27986+P42336); test: Inhibition of PIK3CA/PIK3R1 (unknown origin) at 5 uM; type: protein-complex assay
[27] = target: Tyrosine-protein kinase JAK2 (Homo sapiens) (UniProt O60674); test: Inhibition of JAK2 JH1/JH2 domain (unknown origin) at 5 uM
[28] = target: Serine/threonine-protein kinase mTOR (Homo sapiens) (UniProt P42345); test: Inhibition of FRAP1 (unknown origin) at 5 uM
[29] = test system: L1210; test: Induction of apoptosis in mouse L1210 cells assessed as necrotic cells level at 1 uM after 48 hrs by Annexin-V/7-AAD staining-based flow cytometric analysis (reference value: 3.68%); type: functional
[30] = target: PI3-kinase p110-delta/p85-alpha (Homo sapiens) (UniProt P27986+O00329); test: Inhibition of PIK3CD/PIK3R1 (unknown origin) at 5 uM; type: protein-complex assay
[31] = test system: L1210; test: Cell cycle arrest in mouse L1210 cells at 0.32 uM after 24 to 48 hrs by propidium iodide staining-based flow cytometric analysis; type: functional
[32] = test system: Tyrosine-protein kinase JAK2 (Homo sapiens), O60674 [V617F]; test: Inhibition of JAK2 JH1/JH2 domain V617F mutant (unknown origin) at 5 uM
Tyrosine-protein kinase JAK2 (Homo sapiens), O60674 [V617F], sequence (O60674 whole entry V617F, the tested form may be a part): as the sequence (O60674 whole entry, the tested form may be a part) above, with V617F counted along it

[33] = test system: Cryptococcus neoformans; test: Antifungal activity against Cryptococcus neoformans B4546 assessed as growth inhibition after 48 hrs by microbroth dilution method; type: functional; conditions: B4546, 48 h
[34] = target: Phosphatidylinositol 4-phosphate 3-kinase C2 domain-containing subunit beta (Homo sapiens) (UniProt O00750); test: Inhibition of PIK3C2B (unknown origin) at 5 uM
[35] = test system: L1210; test: Cytotoxicity against mouse L1210 cells assessed as reduction in cell viability after 48 hrs by MTT assay; type: functional, cell-based; conditions: L1210, 48 h
[36] = test system: HeLa; test: Cytotoxicity against human HeLa cells assessed as reduction in cell number; type: functional
[37] = target: Proto-oncogene tyrosine-protein kinase Src (Homo sapiens) (UniProt P12931); test: Inhibition of SRC (unknown origin) at 5 uM
[38] = target: Serine/threonine-protein kinase D2 (Homo sapiens) (UniProt Q9BZL6); test: Inhibition of PRKD2 (unknown origin) at 5 uM
Serine/threonine-protein kinase D2 (Homo sapiens), sequence (Q9BZL6 whole entry): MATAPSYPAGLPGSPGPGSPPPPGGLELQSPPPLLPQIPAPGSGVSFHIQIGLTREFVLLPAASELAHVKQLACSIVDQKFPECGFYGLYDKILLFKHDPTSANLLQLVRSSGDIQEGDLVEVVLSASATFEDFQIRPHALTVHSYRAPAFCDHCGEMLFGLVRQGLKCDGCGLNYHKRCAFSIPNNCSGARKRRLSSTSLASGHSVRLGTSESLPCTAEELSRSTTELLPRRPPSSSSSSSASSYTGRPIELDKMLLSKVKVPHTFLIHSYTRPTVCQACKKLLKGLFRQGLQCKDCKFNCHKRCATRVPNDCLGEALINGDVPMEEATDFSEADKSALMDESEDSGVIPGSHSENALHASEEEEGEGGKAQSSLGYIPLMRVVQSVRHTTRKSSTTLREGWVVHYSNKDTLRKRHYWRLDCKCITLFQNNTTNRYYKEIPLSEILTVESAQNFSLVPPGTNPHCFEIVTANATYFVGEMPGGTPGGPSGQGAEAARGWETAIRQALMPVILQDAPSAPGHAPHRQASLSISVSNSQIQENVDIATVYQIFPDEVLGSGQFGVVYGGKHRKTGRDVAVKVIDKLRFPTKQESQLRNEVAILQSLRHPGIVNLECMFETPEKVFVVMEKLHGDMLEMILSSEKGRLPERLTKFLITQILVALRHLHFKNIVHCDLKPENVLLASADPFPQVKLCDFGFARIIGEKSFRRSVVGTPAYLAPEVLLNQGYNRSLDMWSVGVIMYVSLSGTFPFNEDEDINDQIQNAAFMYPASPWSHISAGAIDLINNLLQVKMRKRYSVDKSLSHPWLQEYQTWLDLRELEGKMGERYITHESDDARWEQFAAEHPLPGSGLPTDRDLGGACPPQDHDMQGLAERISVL

[39] = test system: L1210; test: Induction of apoptosis in mouse L1210 cells assessed as early apoptotic cells level at 1 uM after 48 hrs by Annexin-V/7-AAD staining-based flow cytometric analysis (reference value: 2.59%); type: functional
[40] = test system: Cryptococcus neoformans; test: Antifungal activity against Cryptococcus neoformans JEC20 assessed as growth inhibition after 48 hrs by microbroth dilution method; type: functional; conditions: JEC20, 48 h
[41] = test system: Candida albicans; test: Antifungal activity against Candida albicans ATCC 10231 assessed as growth inhibition after 16 to 20 hrs by microbroth dilution method; type: functional
[42] = test system: Enterococcus faecalis; test: Antibacterial activity against vancomycin-resistant Enterococcus faecalis ATCC 51299 assessed as growth inhibition at 100 uM after 16 to 20 hrs by microbroth dilution method; type: functional, organism-based
[43] = target: Tyrosine-protein kinase JAK1 (Homo sapiens) (UniProt P23458); test: Inhibition of JAK1 (unknown origin) at 5 uM
[44] = test system: L1210; test: Induction of apoptosis in mouse L1210 cells assessed as late cells level at 1 uM after 48 hrs by Annexin-V/7-AAD staining-based flow cytometric analysis (reference value: 1.25%); type: functional
[45] = target: Hepatocyte growth factor receptor (Homo sapiens) (UniProt P08581); test: Inhibition of MET (unknown origin) at 5 uM

Nc1nc(Cl)nc2c(Br)csc12
IC50 [1]: 109 µM
IC50 [2]: 96 µM
IC50 [3]: 150 µM

Clc1nc(-n2cncn2)c2sccc2n1
IC50 [1]: > 250 µM
IC50 [2]: > 250 µM
IC50 [3]: > 250 µM

Clc1ncc2sccc2n1
inhibition [4]: inactive
IC50 [1]: > 250 µM
inhibition [5]: inactive
inhibition [6]: inactive
inhibition [7]: inactive
inhibition [8]: inactive
inhibition [9]: inactive
IC50 [2]: > 250 µM
IC50 [3]: > 250 µM
inhibition [10]: inactive
inhibition [11]: inactive

COc1nc(OC)c2scc([C@H]3C[C@H](O)[C@@H](CO)O3)c2n1
IC50 [1]: > 250 µM
IC50 [2]: > 250 µM
IC50 [3]: > 250 µM

Clc1nc(Cl)c2sccc2n1
inhibition [12]: < 40%
Activity [13]: 37.9%
inhibition [14]: < 40%
inhibition [15]: < 40%
IC50 [1]: 5.2 µM
inhibition [16]: < 40%
inhibition [17]: < 40%
inhibition at 100 µM [8]: 43%
inhibition [18]: < 40%
inhibition [19]: < 40%
MIC99 [20]: 100 µM (≈ 20.5 µg/mL)
MIC99 [21]: 20 µM (≈ 4.1 µg/mL)
inhibition [9]: inactive
inhibition [22]: < 40%
inhibition [23]: < 40%
inhibition [24]: < 40%
inhibition [25]: inactive
inhibition [26]: < 40%
inhibition [27]: < 40%
inhibition [28]: < 40%
Activity [29]: 1.29%
inhibition [30]: < 40%
Activity [31]: inactive
IC50 [2]: 3.9 µM
inhibition [32]: < 40%
MIC95 [33]: 34.6 µM (≈ 7.1 µg/mL)
IC50 [3]: 0.67 µM
inhibition [34]: < 40%
IC50 [35]: 0.32 µM
MIC99 [36]: 4 µM (≈ 0.82 µg/mL)
inhibition [37]: < 40%
inhibition [38]: < 40%
Activity [39]: 56%
MIC95 [40]: 16.6 µM (≈ 3.4 µg/mL)
MIC95 [41]: 23.4 µM (≈ 4.8 µg/mL)
inhibition [42]: inactive
inhibition [43]: < 40%
inhibition [11]: inactive
Activity [44]: 4.72%
inhibition [45]: < 40%
